Data as given in US20260217683A1, “PYRIDAZINONE HETEROCYCLIC COMPOUND MYOSIN II INHIBITOR AND USE THEREOF” (Xizang Haisco Pharmaceutical Co., Ltd., priority 2023, published 2026).
Where two headings read alike, the source gives them in different places.

System: rabbit skeletal muscle myosin
Test: Inhibition of hydrolysis of ATP by rabbit skeletal muscle myosin
Assay type: biochemical
Experimental: The purpose of this test was to evaluate the ability of compounds to inhibit the hydrolysis of ATP by rabbit skeletal muscle myosin. The determination method was as follows:
• Preformed F-actin filaments (#AKF99-B, Cytoskeleton) were diluted to 1 mg/mL with Reaction buffer (25 mM Tris-HCL, pH 7.5+35 mM KCl+0.1 mM EGTA+1 mM MgCl2); • Rabbit myosin (#MYO2-A, Cytoskeleton) was diluted to 0.1 mg/mL with Resuspension buffer (15 mM Tris-HCL, PH7.5+0.2 M KCl+1 mM MgCl2); • ATP (#BSA04-001, Cytoskeleton) was diluted to 3 mM working solution with 15 mM Tris-HCL (PH=7.5);
• adding 13 μL reaction buffer+12 μL F-actin to actin control wells; • adding 10 μL reaction buffer+12 μL F-actin+3 μL myosin II to positive control wells; • adding 10 μL of compound working solution+12 μL of F-actin+3 μL of myosin II to the compound wells; • adding 5 μL of ATP working solution to all test wells to start the reaction, and simultaneously adding a sample to the Pi standard wells according to the instruction (#BK054, Cytoskeleton); • gently mixing and accurately incubating at 37° C. for 60 min; • adding 70 μL of CytoPhos Reagent (#BK054, Cytoskeleton) to each well and incubating for 10 min to stop the reaction.
• the OD value of each well was detected at 650 nm using the endpoint method. The standard curve was fitted according to Pi concentration and OD value, and the Pi concentration of each test well was obtained. Inhibition (%)=(Pi positive control well-Pi test well)/Pi positive control well*100%. The Inhibition %-[…] curve was fitted with Graphpad Prism 8 software, and IC50 was calculated.

[1] = inhibition of hydrolysis of ATP, class symbols, read-out: Rabbit skeletal muscle myosin (IC50)
[2] = read-out: IC50 for inhibition of hydrolysis of ATP by rabbit skeletal muscle myosin

Row | IC50 [1] | IC50 [2] | SMILES
1 | < 2500 nM | 100 nM | O=c1ccc(-c2cnc(OCC(F)F)nc2)nn1Cc1ccc2c(c1)CC2 [compound 60]
2 | < 2500 nM | 100 nM | O=c1ccc(-c2cnc(Oc3cncc(F)c3)nc2)nn1Cc1ccc2c(c1)CC2 [Compound 101]
3 | 2500 to 20000 nM | – | O=C1CCc2ccc(Cn3nc(-c4cnc(Oc5ccc(F)cn5)nc4)ccc3=O)cc21 [Compound 146]
4 | 2500 to 20000 nM | – | O=C1CCc2ccc(Cn3nc(-c4cnc(Oc5cccc(C(F)(F)F)n5)nc4)ccc3=O)cc21 [Compound 144]
5 | < 2500 nM | – | O=C1CCc2c(Cl)cc(Cn3nc(-c4cnc(Oc5cccc(F)n5)nc4)ccc3=O)cc21 [Compound 174]
6 | 2500 to 20000 nM | – | O=C1CCc2ccc(Cn3nc4c(cc3=O)CCc3nc(OCC(F)(F)F)ncc3-4)cc21 [Compound 154]
7 | < 2500 nM | 200 nM | O=c1ccc(-c2cnc(O[C@@H]3CCOC3)nc2)nn1Cc1ccc2c(c1)CC2 [Compound 107]
8 | 2500 to 20000 nM | – | O=C1CCc2ccc(Cn3nc(-c4cnc(Oc5ccnc(C(F)(F)F)c5)nc4)ccc3=O)cc21 [Compound 143]
9 | < 2500 nM | 100 nM | O=c1ccc(-c2cnc(OCC(F)F)nc2)nn1Cc1ccc2c(c1)C(F)(F)CC2 [Compound 100]
10 | 2500 to 20000 nM | – | O=c1cc2c(nn1Cc1ccc3c(c1)CC3)-c1cnc(OC3CCOC3)nc1CC2 (stereo not shown) [Compound 122]
11 | < 2500 nM | 530 nM | O=C1CCc2c(Cl)cc(Cn3nc(-c4cnc(Oc5cncc(F)c5)nc4)ccc3=O)cc21 [Compound 173]
12 | 2500 to 20000 nM | – | O=C1CCCc2ccc(Cn3nc(-c4cnc(OCC(F)(F)F)nc4)ccc3=O)cc21 [Compound 168]
13 | < 2500 nM | 800 nM | O=c1ccc(-c2cnc(OCC(F)(F)F)nc2)nn1Cc1cc2c(cc1F)CCC2 [Compound 99]

Further lines, the molecule ahead of its results:

Row | SMILES | IC50 [1] | IC50 [2]
14 | O=c1ccc(-c2cnc(OCC3CC3)nc2)nn1Cc1ccc2c(c1)CC2 [Compound 86] | < 2500 nM | 200 nM
15 | O=c1ccc(-c2cnc(OC3CC3)nc2)nn1Cc1ccc2c(c1)CC2 [Compound 82] | < 2500 nM | 200 nM
16 | O=c1ccc(-c2cnc(OCCC(F)(F)F)nc2)nn1Cc1ccc2c(c1)CC2 [Compound 65] | < 2500 nM | –
17 | O=c1ccc(-c2cnc(OCCF)nc2)nn1Cc1ccc2c(c1)CC2 [Compound 66] | < 2500 nM | –
18 | O=c1ccc(-c2cnc(OCCC(F)F)nc2)nn1Cc1ccc2c(c1)CCC2 [Compound 76] | < 2500 nM | –
19 | O=c1ccc(-c2cnc(OC3CC(F)(F)C3)nc2)nn1Cc1ccc2c(c1)CCC2 [Compound 85] | 2500 to 20000 nM | –
20 | O=c1ccc(-c2cnc(OC3COC3)nc2)nn1Cc1ccc2c(c1)CC2 [Compound 94] | < 2500 nM | 200 nM
21 | O=c1ccc(-c2cnc(OCC(F)(F)F)nc2)nn1Cc1ccc2c(c1F)CCC2 [Compound 98] | < 2500 nM | 200 nM
22 | O=c1ccc(-c2cnc(OCC3CC3(F)F)nc2)nn1Cc1ccc2c(c1)CC2 (stereo not shown) [Compound 87] | < 2500 nM | 300 nM
23 | O=c1ccc(-c2cnc(OCCCCl)nc2)nn1Cc1ccc2c(c1)CCC2 [Compound 77] | < 2500 nM | –
24 | O=c1ccc(-c2cnc(OCCC(F)F)nc2)nn1Cc1ccc2c(c1)CC2 [Compound 68] | < 2500 nM | 100 nM
25 | O=c1ccc(-c2cnc(OC3CC(F)(F)C3)nc2)nn1Cc1ccc2c(c1)CC2 [Compound 83] | < 2500 nM | –
26 | O=c1ccc(-c2cnc(OCCF)nc2)nn1Cc1ccc2c(c1)CCC2 [Compound 75] | < 2500 nM | 500 nM
27 | O=c1ccc(-c2cnc(C3CC3)nc2)nn1Cc1ccc2c(c1)CCC2 [Compound 78] | < 2500 nM | –
28 | O=c1ccc(-c2cnc(OCC(F)(F)F)nc2)nn1Cc1ccc2c(c1)CCC2(F)F [Compound 79] | 2500 to 20000 nM | –
29 | CC(c1ccc2c(c1)CC2)n1nc(-c2cnc(OCC(F)(F)F)nc2)ccc1=O (stereo not shown) [Compound 61] | 2500 to 20000 nM | –
30 | CC(c1ccc2c(c1)CC2)n1nc(-c2cnc(OCC(F)(F)F)nc2)ccc1=O (single isomer, unassigned) [Compound 64] | < 2500 nM | –
